Several values for one entry are separate records, joined by “and”; a condition that tells them apart may be missing. Equal entries are not always repeated. Toxic doses and inconclusive results are not listed. How the source made its calls: active means survival T/C of 150% or more; inactive means T/C below 125% in these data.
Test system: P388 leukemia ip, CD2F1 mice, survival T/C
Assay: NCI In Vivo Anticancer Drug Screen. Data for tumor model P388 Leukemia (intraperitoneal) in CD2F1 (CDF1) mice
Conditions: endpoint: median survival time, higher = longer survival
Summary of the method: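 Mice carrying the transplanted tumor received test compound or vehicle. Survival was recorded in each group, and the value is the treated-group measurement divided by that of the vehicle-treated control group.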

[1] = dose: 50.0 mg/kg/injection, schedule: Q01DX009 (ip), vehicle: saline with Tween-80
[2] = dose: 100.0 mg/kg/injection, schedule: Q01DX009 (ip), vehicle: saline with Tween-80
[3] = dose: 200.0 mg/kg/injection, schedule: Q01DX009 (ip), vehicle: saline with Tween-80
[4] = dose: 50.0 mg/kg/injection, schedule: Q01DX005 (ip), vehicle: saline
[5] = dose: 100.0 mg/kg/injection, schedule: Q01DX005 (ip), vehicle: saline
[6] = dose: 200.0 mg/kg/injection, schedule: Q01DX005 (ip), vehicle: saline
[7] = dose: 50.0 mg/kg/injection, schedule: Q01DX009 (ip), vehicle: saline
[8] = dose: 100.0 mg/kg/injection, schedule: Q01DX009 (ip), vehicle: saline
[9] = dose: 200.0 mg/kg/injection, schedule: Q01DX009 (ip), vehicle: saline
[10] = dose: 60.0 mg/kg/injection, schedule: Q01DX005 (ip), vehicle: saline with Tween-80
[11] = dose: 120.0 mg/kg/injection, schedule: Q01DX005 (ip), vehicle: saline with Tween-80
[12] = dose: 240.0 mg/kg/injection, schedule: Q01DX005 (ip), vehicle: saline with Tween-80
[13] = dose: 50.0 mg/kg/injection, schedule: Q01DX005 (ip), vehicle: saline with Tween-80
[14] = dose: 100.0 mg/kg/injection, schedule: Q01DX005 (ip), vehicle: saline with Tween-80
[15] = dose: 200.0 mg/kg/injection, schedule: Q01DX005 (ip), vehicle: saline with Tween-80
[16] = dose: 6.25 mg/kg/injection, schedule: Q01DX005 (ip), vehicle: saline with Tween-80
[17] = dose: 12.5 mg/kg/injection, schedule: Q01DX005 (ip), vehicle: saline with Tween-80
[18] = dose: 100.0 mg/kg/injection, schedule: Q04DX002 (ip), vehicle: saline with Tween-80
[19] = dose: 200.0 mg/kg/injection, schedule: Q04DX002 (ip), vehicle: saline with Tween-80
[20] = dose: 50.0 mg/kg/injection, schedule: Q01DX005 (ip), vehicle: Klucel (hydroxypropylcellulose) (HPC)
[21] = dose: 100.0 mg/kg/injection, schedule: Q01DX005 (ip), vehicle: Klucel (hydroxypropylcellulose) (HPC)
[22] = dose: 100.0 mg/kg/injection, schedule: Q04DX003 (ip), vehicle: saline
[23] = dose: 200.0 mg/kg/injection, schedule: Q04DX003 (ip), vehicle: saline
[24] = dose: 400.0 mg/kg/injection, schedule: Q04DX003 (ip), vehicle: saline
[25] = dose: 25.0 mg/kg/injection, schedule: Q01DX005 (ip), vehicle: saline with Tween-80

Measured: T/C

CN(C)c1nc(NO)nc(N(C)C)n1
inactive: [1] 103 % of control | [2] 107 % of control | [3] 112 % of control

CCC(O)C(C[N+](=O)[O-])C(=O)OC (stereo unspecified)
inactive: [4] 109 % of control | [5] 107 % of control | [6] 102 % of control

C=CO/C(C)=C(\[Se]c1ccccc1)C(C)=O
inactive: [7] 99 % of control | [8] 100 % of control | [9] 104 % of control

c1cnc2c(c1)Nc1cnncc1S2
inactive: dose: 100.0 mg/kg/injection, schedule: Q04DX002 (ip), vehicle: Klucel (hydroxypropylcellulose) (HPC) 98 % of control | dose: 200.0 mg/kg/injection, schedule: Q04DX002 (ip), vehicle: Klucel (hydroxypropylcellulose) (HPC) 100 % of control | dose: 400.0 mg/kg/injection, schedule: Q04DX002 (ip), vehicle: Klucel (hydroxypropylcellulose) (HPC) 92 % of control

Cc1cccc(C(=O)O)c1C
inactive: dose: 50.0 mg/kg/injection, schedule: Q04DX003 (ip), vehicle: gum acacia 100 % of control | dose: 100.0 mg/kg/injection, schedule: Q04DX003 (ip), vehicle: gum acacia 97 % of control | dose: 200.0 mg/kg/injection, schedule: Q04DX003 (ip), vehicle: gum acacia 93 % of control | dose: 400.0 mg/kg/injection, schedule: Q04DX003 (ip), vehicle: gum acacia 98 % of control

CCN(CC)C(=O)c1cccc2c1OCO2
inactive: [10] 94 % of control | [11] 98 % of control | [12] 95 % of control

COc1ccc2nc3cc(Cl)ccc3c(Nc3ccccc3NC(C)=O)c2n1
inactive: dose: 12.5 mg/kg/injection, schedule: Q01DX009 (ip), vehicle: water 116 % of control | dose: 25.0 mg/kg/injection, schedule: Q01DX009 (ip), vehicle: water 116 % of control | dose: 50.0 mg/kg/injection, schedule: Q01DX009 (ip), vehicle: water 119 % of control | dose: 100.0 mg/kg/injection, schedule: Q01DX009 (ip), vehicle: water 114 % of control | dose: 200.0 mg/kg/injection, schedule: Q01DX009 (ip), vehicle: water 115 % of control

O=C1c2ccccc2C(=O)N1CC1CC(S(=O)(=O)c2ccccc2)=NO1 (stereo unspecified)
inactive: [13] 94 % of control | [14] 94 % of control | [15] 102 % of control

Nc1[nH]c(=S)nc2nc[nH]c12
inactive: [16] 103 % of control | [17] 100 % of control

COC(=O)Nc1nc2ccc(-c3c(C)oc(C)c3C(=O)O)cc2[nH]1
inactive: [13] 97 % of control | [14] 97 % of control | [15] 87 % of control

CC1N=C(SCC(=O)c2ccc(Cl)cc2)N2C(C)N=C(SCC(=O)c3ccc(Cl)cc3)N12 (stereo unspecified)
inactive: [7] 98 % of control | [8] 90 % of control | [9] 90 % of control

Cn1c2ccccc2c2nnc(N/N=C/c3cccnc3)nc21
inactive: [18] 91 % of control | [19] 86 % of control and 90 % of control | dose: 400.0 mg/kg/injection, schedule: Q04DX002 (ip), vehicle: saline with Tween-80 99 % of control and 90 % of control and 95 % of control

CC(C)(Sc1ccc(Cl)cc1)C(=O)OCCN1CCCCC1
inactive: [10] 91 % of control | [11] 92 % of control | [12] 92 % of control

COc1cc2c(cc1C/C=C/c1ccccc1)OCO2
inactive: [13] 105 % of control | [14] 109 % of control | [15] 112 % of control

CN(CCC#N)c1ccc(/C=C(\C#N)C(N)=O)cc1
inactive: dose: 20.0 mg/kg/injection, schedule: Q01DX009 (ip), vehicle: saline with Tween-80 101 % of control | dose: 25.0 mg/kg/injection, schedule: Q01DX009 (ip), vehicle: saline with Tween-80 97 % of control | dose: 40.0 mg/kg/injection, schedule: Q01DX009 (ip), vehicle: saline with Tween-80 89 % of control | [1] 98 % of control | [2] 97 % of control | dose: 160.0 mg/kg/injection, schedule: Q01DX009 (ip), vehicle: saline with Tween-80 90 % of control | [3] 97 % of control

CC(C)(CO)N(CCO)CCO
inactive: [4] 106 % of control | [5] 106 % of control | [6] 106 % of control

CC1=NN(c2ccccc2)C(=O)/C1=C(\[O-])c1ccccc1.CC1=NN(c2ccccc2)C(=O)/C1=C(\[O-])c1ccccc1.[Co+2]
inactive: dose: 15.0 mg/kg/injection, schedule: Q01DX005 (ip), vehicle: saline with Tween-80 100 % of control | dose: 30.0 mg/kg/injection, schedule: Q01DX005 (ip), vehicle: saline with Tween-80 102 % of control | [10] 102 % of control and 109 % of control

CCN1CCC(Nc2ccnc3cc(Cl)ccc23)CC1
inactive: [20] 99 % of control | [13] 104 % of control | [21] 94 % of control | [14] 110 % of control

COc1ccccc1C1NC(c2ccccc2OC)C2CCCC1C2O (stereo unspecified)
inactive: [22] 98 % of control | [23] 97 % of control | [24] 95 % of control

COCCn1c2nc(=O)n(-c3ccccc3)c(=O)c-2nc2c1CCCC2
inactive: dose: 25.0 mg/kg/injection, schedule: Q01DX009 (ip), vehicle: saline 100 % of control | [7] 93 % of control | [8] 94 % of control | [9] 116 % of control

Cc1nc(C)c(C(=O)O)cc1C(=O)O
inactive: [22] 100 % of control | [23] 95 % of control | [24] 86 % of control

c1ccc(Nc2nnc(-c3ccc4c(c3)OCO4)o2)cc1
inactive: [20] 91 % of control | [21] 92 % of control | dose: 200.0 mg/kg/injection, schedule: Q01DX005 (ip), vehicle: Klucel (hydroxypropylcellulose) (HPC) 100 % of control

CCC(/C=C/c1ccccc1)=N\NC(=O)c1ccc(C)cc1
inactive: [16] 98 % of control | [17] 92 % of control | [25] 89 % of control

COC(=O)C1=C(C(=O)OC)C23C(=O)c4ccc(OC)c(OC)c4C1N2CCc1cc2c(cc13)OCO2 (stereo unspecified)
inactive: dose: 50.0 mg/kg/injection, schedule: Q04DX002 (ip), vehicle: saline with Tween-80 94 % of control | [18] 102 % of control | [19] 100 % of control

CC(=O)O[C@H]1CC[C@H]2[C@@H]3CCC4=CC(=O)CC[C@]4(C)[C@H]3[C@H](OC(C)=O)C[C@]12C
inactive: [2] 95 % of control | [3] 100 % of control | dose: 400.0 mg/kg/injection, schedule: Q01DX009 (ip), vehicle: saline with Tween-80 90 % of control

COc1ccc2c(c1)CN(C)c1ccc(OC)cc1CN2C
inactive: [10] 100 % of control | [11] 104 % of control | [12] 100 % of control

O=c1[nH]nc(Sc2ccccc2)c2nncn12
inactive: [13] 100 % of control | [14] 92 % of control

C/C(=N/N)c1ccc(Br)cc1
inactive: dose: 6.25 mg/kg/injection, schedule: Q01DX009 (ip), vehicle: saline with Tween-80 100 % of control | dose: 12.5 mg/kg/injection, schedule: Q01DX009 (ip), vehicle: saline with Tween-80 104 % of control

COc1ccc(/C=N/N=c2/sc3ccccc3n2CC(=O)O)cc1
inactive: dose: 100.0 mg/kg/injection, schedule: Q01DX001 (ip), vehicle: saline with Tween-80 108 % of control | dose: 200.0 mg/kg/injection, schedule: Q01DX001 (ip), vehicle: saline with Tween-80 87 % of control

COc1ccc(C)cc1NC(=O)Sc1ccc(Cl)cc1
inactive: [25] 110 % of control and 115 % of control | dose: 50.0 mg/kg/injection, schedule: Q01DX005 (ip), vehicle: saline + Tween-80 + alcohol 117 % of control | [13] 120 % of control and 123 % of control | dose: 100.0 mg/kg/injection, schedule: Q01DX005 (ip), vehicle: saline + Tween-80 + alcohol 119 % of control | [14] 122 % of control | [15] 106 % of control

CCOC(=O)C/C(C)=N\NC(=O)c1ccncc1
inactive: dose: 37.0 mg/kg/injection, schedule: Q01DX009 (ip), vehicle: saline with Tween-80 97 % of control | dose: 75.0 mg/kg/injection, schedule: Q01DX009 (ip), vehicle: saline with Tween-80 105 % of control | dose: 150.0 mg/kg/injection, schedule: Q01DX009 (ip), vehicle: saline with Tween-80 106 % of control

From PubChem BioAssay AID330 (DTP/NCI, 2004)
